Experiment: xn = mol fraction of the nth substance listed
Details: for surface tension liquid-gas: Capillary rise; for mass density / viscosity: 101 kPa, Liquid

C1COCO1 [1,3-dioxolane] + CC(C)CC(C)(C)C
Details | mass density, 288.15 K [kg/m3] | mass density, 298.15 K [kg/m3] | surface tension liquid-gas, 288.15 K [mN/m] | surface tension liquid-gas, 298.15 K [mN/m] | viscosity, 288.15 K [mPa·s] | viscosity, 298.15 K [mPa·s]
x1 = 0.0501 | 704.03 | 695.41 | 19.37 | 18.57 | 0.529 | 0.48
x1 = 0.1 | 712.38 | 703.47 | 19.55 | 18.75 | 0.528 | 0.478
x1 = 0.15 | 721.22 | 712.11 | 19.7 | 18.92 | 0.527 | 0.478
x1 = 0.2 | 730.61 | 721.42 | 19.83 | 19.07 | 0.527 | 0.479
x1 = 0.25 | 740.66 | 731.37 | 19.97 | 19.2 | 0.528 | 0.479
x1 = 0.3 | 751.51 | – | 20.08 | 19.33 | 0.532 | –
x1 = 0.35 | 763.25 | – | 20.22 | 19.47 | 0.536 | –
x1 = 0.4 | 775.92 | – | 20.38 | 19.63 | 0.541 | –
x1 = 0.45 | 789.66 | – | 20.57 | 19.82 | 0.547 | –
x1 = 0.5 | 804.59 | – | 20.78 | 20.03 | 0.554 | –
x1 = 0.55 | 820.88 | – | 21.02 | 20.3 | 0.561 | –
x1 = 0.6 | 838.7 | – | 21.32 | 20.6 | 0.568 | –
x1 = 0.65 | 858.32 | – | 21.63 | 20.93 | 0.576 | –
x1 = 0.7 | 879.84 | – | 22 | 21.32 | 0.585 | –
x1 = 0.75 | 903.63 | – | 22.43 | 21.8 | 0.595 | –
x1 = 0.8 | 929.95 | – | 23 | 22.4 | 0.605 | –
x1 = 0.85 | 959.26 | – | 23.85 | 23.32 | 0.617 | –
x1 = 0.9 | 992.11 | – | 25.35 | 24.9 | 0.632 | –
x1 = 0.95 | 1029.19 | – | 28.33 | 27.6 | 0.651 | –
x1 = 1 | 1071.24 | – | 34.37 | 32.55 | 0.667 | –

Source: the NIST ThermoML archive (doi:10.1021/je800664z)
